Measurements reported in patent publication US20240216372A1, “THERAPEUTICS FOR KELOIDS AND OTHER FIBROTIC DISORDERS” (Florida State University Research Foundation, Inc., priority 2022, published 2024).

Experiments:
[1] = tested on: keloid dermal fibroblasts; experiment: keloid fibroblast proliferation; assay type: cell-based, human; details: for sensitivity of keloid fibroblasts compared to normal HDFs: keloid fibroblasts versus normal HDFs; for effect on keloid fibroblast proliferation / sensitivity of keloid dermal fibroblasts to the drug (effective concentration range): patient-derived keloid dermal fibroblasts
[2] = tested on: Insulin-like Growth Factor 2 (IGF2) signaling; details: general statement, no test described; cited from earlier work
[3] = tested on: normal primary human dermal fibroblasts (HDFs); experiment: normal HDF proliferation; assay type: cell-based

| Structure (SMILES) | sensitivity of keloid fibroblasts compared to normal HDFs [1] | effect on keloid fibroblast proliferation [1] | effective range as inhibitor of IGF2 signaling [2] | sensitivity of keloid dermal fibroblasts to the drug (effective concentration range) [1] | sensitivity / proliferation of normal HDFs [3] |
| --- | --- | --- | --- | --- | --- |
| COc1cc(/C=C/C(=O)CC(=O)/C=C/c2ccc(O)c(OC)c2)ccc1O [Curcumin] | much more sensitive | – | – | – | – |
| COc1ccc(CCN(C)CCCC(C#N)(c2ccc(OC)c(OC)c2)C(C)C)cc1OC (stereo not drawn) [Verapamil] | – | inhibits the proliferation of keloid fibroblasts | – | – | – |
| CN(C)c1ccc2c(c1)OC(N)=C(C#N)C2c1cccc(C(F)(F)F)c1 (stereo not drawn) [Chromeceptin] | – | blocks keloid fibroblast proliferation | low nanomolar range | sensitive | – |
| O=C(O)C(=O)c1cn(Cc2ccccc2)c2ccc(-c3ccc(OC(F)(F)F)cc3)cc12 [Tiplaxtinin] | preferentially blocks keloid fibroblast proliferation over normal HDF proliferation | – | – | low micromolar range | not significantly sensitive |
| CNC(=O)Nc1ccc2c(c1)CC[C@@]21OC(=O)N(CC(=O)N(Cc2ccc(F)cc2)[C@@H](C)C(F)(F)F)C1=O [A485] | much more sensitive | – | – | – | – |
